Entries after “also recorded” stand apart in the source; their conditions may differ.
Legend:
[1] = tested on: normal NOD-SCID-Gamma mice; settings: mouse
SupB15 cells [2] = experiment: neutral comet assay; assay type: cell-based, human; settings: 48 hours
Description: (§1) SupB15 cells were treated with 2 μM ACY1035, ACY1071, ACY957, or solvent (DMSO) for 48 hours. (A) Immunofluorescence with γH2AX was performed on treated SupB15 cells. The number of γH2AX foci was counted in around 100 cells for each treatment and classified into cells with no foci, 1-5, 6-10, and greater than 10 foci. (B) SupB15 cells treated with DMSO or ACY1035 for 48 hours were tested via neutral comet assay to measure the amount of double-strand breaks (DSBs), indicated by the tail.
We next asked whether double-strand break repair is impaired in SupB15 cells. We used neutral comet assays to measure the efficiency of double-strand break repair following treatment with ACY1035 for 48 hours. The neutral comet assay specifically measures double-strand breaks and not single-strand breaks. In this assay, control and HDAC1,2 inhibitor treated SupB15 cells were embedded in low melting agarose and subjected to electrophoresis to separate damaged DNA from intact DNA. Damaged DNA runs faster and therefore forms a tail, and the intact DNA is present in the head (FIG. 24B). DNA was visualized with sybrgreen staining.

SupB15 cells [3] = experiment: BrdU ChIP assay, γH2AX on nascent chromatin; assay type: cell-based, human
Excerpt: The majority of chromatin-bound proteins that decreased following ACY1035 plus doxorubicin treatment compared to ACY1035 treatment alone belong to DNA replication and DNA replication-associated repair processes (FIGS. 29A and 29B).

Hdac1,2 = experiment: in vitro enzyme assays, IC50 determination (FIG. 17A); assay type: biochemical
Description: (A). For IC50 determination, recombinant HDAC enzymes were treated with HDAC1,2 or HDAC3 inhibitors in in vitro HDAC assays. (B). Western blots for H3K23ac using extracts from Pre-B-ALL SupB15 cells treated with increasing dose of HDAC1,2 inhibitor (ACY1035). (C). Hdac1^FI/FI, 2^FI/FI cells were infected with Ad-Cre virus to delete HDAC1 and HDAC2 (HDAC1,2 null) or uninfected (WT). (D). Hdac3^FI/FI cells were either uninfected (WT) or infected with Ad-Cre virus to delete Hdac3. HDAC3-null cells were treated with DMSO or the HDAC1,2 selective inhibitor.
We have determined 2 μM (FIG. 17B) as the minimum dose for the ACY compounds, respectively, that when added to cells increased H3K23ac (a mark targeted by Hdac1,2 but not Hdac3).

[4] = tested on: SupB15 (Ph+PreB-ALL) cells; experiment: γH2AX immunofluorescence; assay type: cell-based, human; settings: 2 μM, 48 hours
Description: as §1
BCR-ABL promotes DNA repair to prevent DNA damage accumulation in Philadelphia chromosome-positive (Ph+) leukemia cells. To examine the effect of various HDAC1,2-selective inhibitors on DNA repair and DNA damage response in Pre-B-ALL cells that express BCR-ABL, SupB15 (Ph+PreB-ALL) cells were treated with 2 μM ACY1035 or 2 μM ACY1071 or 2 μM ACY957 for 48 hours.

[5] = tested on: Ph+ALL patient derived xenograft; experiment: Ph+ALL patient-derived xenograft mouse model; assay type: in vivo; settings: for human CD45 and CD19 markers in bone marrow: 25 mg/kg ACY1035 every other day i.p., 0.25 mg/kg doxorubicin once a week i.v., vs solvent; for white cell burden: vs solvent-treated mice
Description: Patient-derived xenograft mice were treated with either cyclodextrin (solvent) or 25 mg/kg ACY1035 every other day for a total of 21 doses. (A) The level of human CD19, CD45, and CD34 markers were assessed in the bone marrow of these mice by FACS analysis. For each FACS marker, the bars represent (from left to right): solvent, ACY1035, doxorubicin, ACY1035+doxorubicin. (B) Solvent-treated mice have bones infiltrated with white blood cells.
Additional experiments were performed to assess the therapeutic benefits of HDAC1,2 inhibition in vivo using primary Ph+ALL patient derived xenograft mouse models. NOD/SCID mice were irradiated with a sub lethal dose of irradiation to ablate the immune system in these mice. Immune-compromised NSG mice were then injected with 2×10^6 CD34+ cells isolated from a Ph+ ALL patient. Bone and spleens were harvested from these primary xenograft mice when the leukemia burden reached the maximum 90-95% level as determined by FACS analysis for human CD19 and CD45 markers. Cells isolated from bone marrow and spleen of these primary xenograft mice were frozen in liquid nitrogen until use. A mixture of bone marrow and spleen cells from the primary xenograft mice was then injected into a cohort of sub-lethally irradiated NOD/SCID mice. Mice were divided into four treatment groups: solvent, ACY1035, doxorubicin, and ACY1035 plus doxorubicin. Xenograft mice were injected according to one of the four treatment groups after 5 days post-xenograft induction, when human CD45 marker reached around 5-10% in the peripheral blood. Mice were injected with 25 mg/kg ACY1035 every other day via i.p. and 0.25 mg/kg doxorubicin once a week via i.v., a dosing schedule that has minimal toxicity in immune compromised mice.
In this PDX model, the majority of leukemia cells homed in the bone marrow and not spleen. […] Furthermore, a decrease in human CD34+ stem/progenitor cells was observed similar to the results obtained from in vitro studies (FIG. 33A). […] The disclosed mechanistic and preclinical results provide strong evidence that HDAC1,2 inhibition or HDAC1,2 inhibition in combination with doxorubicin can provide a very potent therapeutic for Ph+PreB-ALL.

[6] = tested on: doxorubicin-resistant EZH2GOF DLBCL (Karpas-422/NSG); experiment: Karpas-422/NSG xenograft mouse model; assay type: in vivo; settings: seventeen doses of ACY1035, five doses of doxorubicin
Description: (C) FACS analyses of human CD19 and IgM markers in peripheral blood of Karpas-422/NSG xenograft mice treated with solvent or doxorubicin (Doxo) or the HDAC1,2 inhibitor ACY1035 (H12IN). Seventeen doses of HDAC1,2 inhibitor and five doses of doxorubicin were administered.
The in vivo testing used a doxorubicin-resistant EZH2^GOF DLBCL (Karpas-422/NSG) mouse model and a doxorubicin-sensitive EZH2^WT DLBCL (SUDHL8/NSG) mouse model (FIG. 36). To create these models, NOD-SCID-Gamma (NSG) mice were injected intravenously (i.v.) with 1×10^6 Karpas-422 cells (chemoresistant and expressing the EZH2 gain-of-function mutant) or SUDHL8 cells (chemosensitive and expressing wild-type EZH2).

[7] = tested on: normal NOD-SCID-Gamma mice; experiment: hematoxylin and eosin staining of bone marrow and spleen, toxicity; settings: 25 mg/kg ACY1035 (fifteen doses) or 0.5 mg/kg doxorubicin (six doses)
[8] = tested on: non-transformed, mouse bone marrow Pro-B derived Baf3 cells or cord blood stem cells; experiment: cell death in non-transformed cells; assay type: cell-based; settings: 2 μM, within 72 hr
Excerpt: Therefore, transformed lymphoma cells are more sensitive to HDAC1,2 inhibition when compared to the untransformed normal B-cells. HDAC1,2 inhibitor causes replication fork collapse in S-phase to trigger DNA damage response, and transformed cancer cells have increased DNA replication when compared to normal B cells. […] In addition to this property, EZH2^GOF DLBCL cells also have increased DNA repair compared to EZH2^WT DLBCL cells (FIG. 34A), which can also be targeted by HDAC1,2 inhibitor as it impairs the HDAC1,2 regulated DNA repair processes used by EZH2^GOF DLBCL cells for their survival.

[9] = tested on: Karpas-422 (EZH2GOF) cells; experiment: neutral comet assay of DSB repair; assay type: cell-based, human
Excerpt: (A) Measurement of repair efficiency in SUDHL5 (EZH2^WT) and Karpas-422 (EZH2^GOF) cells using neutral comet assay that detects only double-strand breaks (DSBs). In the comet, the head (H) represents intact DNA and the tail (T) represents the number of DSBs in a single cell. Tail moment is a measure of length and intensity of DNA in the tail, and the average tail moments from 100 comets are indicated within the figure for each cell/treatment combination. Doxo indicates doxorubicin; H121N indicates HDAC1,2 inhibitor. (B) DNA damage in EZH2GOF cells following knockdown of HDAC1,2 using siRNA. NT indicates non-targeting control siRNA; HDAC1,2 siRNA indicates combined treatment with HDAC1 siRNA and HDAC2 siRNA. (C) Karpas-422 cells treated with DMSO solvent or HDAC1,2 inhibitor were subjected to microlaser irradiation. H3K27me3, γH2AX, Bmi-1, and serine2-phosphorylated RNA Polymerase II (engaged in transcriptional elongation) were monitored at laser break sites (arrows) after 15 minutes of recovery time. Numbers overlaying the images indicate percentages of cells with γH2AX lines that co-localized with H3K27me3, Bmi-1, or Pol2Ser2-P lines from at least four independent experiments (p value<0.01).
Indeed, EZH2, H3K27me3, and HDAC1,2 all localize to sites of DNA breaks, which links them to DNA repair. […]

[10] = tested on: SupB15 Pre-B-ALL leukemia xenograft; experiment: SupB15 Pre-B-ALL leukemia xenograft mice; assay type: in vivo, mouse; settings: same concentration of doxorubicin
Description: Pre-B-ALL cell lines as well as Ph+ALL primary patient samples were engrafted in NOD scid gamma (NSG) mice to examine the efficacy of Hdac1,2 inhibitor in killing cells in vivo. We injected NSG mice with SupB15 cells (1×10^6) and Ph+Pre-B-ALL primary patient cells and monitored engraftment by flow cytometry using anti-human CD45/CD19 antibodies every week for 4-5 weeks. […] To examine the extent of leukemia infiltration in spleen and bone marrow, we performed IHC analysis.

Karpas-422 cells = experiment: propidium-iodide / BrdU-PI cell cycle analysis; assay type: cell-based, human; settings: 48 h
Description: (B): Quantitation of the cell cycle data in (A), compiled from three independent analyses. The graphs plotted the average percentage of cells in each phase of the cell cycle. […] (C): FACS analysis following BrdU-PI staining of Karpas-422 and SUDHL4 cells was performed following a 48 h or 72 h treatment with ACY-957.
Cell cycle analysis of propidium-iodide stained cells was performed with fixed cells. […] (C): FACS analysis following BrdU-PI staining of Karpas-422 and SUDHL4 cells was performed following a treatment with 2 μM ACY-957, 50 nM doxorubicin or both for 48 h.
(B): Quantitation of the cell cycle analysis performed in (A). Data from three independent cell cycle analyses were compiled and average percentage cells with standard errors were shown in this panel.
Propidium-iodide Cell Cycle Analysis.
Since these DLBCL cells expressed a hyperactive form of EZH2, pharmacological inhibition of EZH2 activity was considered a therapeutic strategy. […] GSK126 was a S-adenosyl-methionine-competitive inhibitor of EZH2 methyltransferase activity, and DZNep was a S-adenosylhomocysteine hydrolase inhibitor that disrupted the components of the PRC2 complex, thereby causing reduced chromatin-associated EZH2 levels.
To test this possibility, cell cycle analysis following treatment of Karpas-422 with ACY-957, doxorubicin, or ACY-957 in combination with doxorubicin was performed.

Row | SMILES | toxic effects in vivo [1] | damaged DNA (comet tail) (SupB15 cells [2]) | γH2AX on the nascent chromatin (SupB15 cells [3]) | inhibition of Hdac1,2 activities compared to Hdac3 (IC50 values) (Hdac1,2) | DNA damage, quantitation of γH2AX foci [4] | human CD45 and CD19 markers in bone marrow [5] | white cell burden [5] | human CD19 and IgM population in peripheral blood [6] | morphology of bone marrow and spleen cells [7] | cell death [8] | DSBs, comet tail moment [9] | leukemia burden [10] | increase in the percentage of cells in G2/M phase (Karpas-422 cells; 50 nM doxorubicin) [fold] | cell death / sub-G1 population (Karpas-422 cells; 2 μM ACY-957, 50 nM doxorubicin or both)
1 | Nc1ccc(-c2cccs2)cc1NC(=O)c1ccc2c(c1)cc(C1CC1)n2CCN1CCOCC1 [ACY-1035, N-(2-amino-5-(thiophen-2-yl)phenyl)-2-cyclopropyl-1-(2-morpholinoethyl)-1H-indole-5-carboxamide] | does not have toxic effects in vivo | increase in damaged DNA | increase in γH2AX on the nascent chromatin | very selectively | statistically significant increase in DNA damage | significant reduction in the human CD45 and CD19 markers; also recorded: greater decrease in the human leukemia markers when compared to doxorubicin-treated mice | decrease in the white cell burden | significant decrease in human CD19 and IgM population in peripheral blood | No changes in the morphology of spleen or bone marrow cells; also recorded: no abnormalities or changes in the cell morphology in bone marrow or spleens | did not cause any cell death |  |  |  | 
2 | COc1cccc2c1C(=O)c1c(O)c3c(c(O)c1C2=O)C[C@@](O)(C(=O)CO)C[C@@H]3O[C@H]1C[C@H](N)[C@H](O)[C@H](C)O1 [doxorubicin, reference compound] |  |  |  |  |  | significant reduction in the human CD45 and CD19 markers | decrease in the white cell burden | no significant change in these markers | No changes in the morphology of spleen or bone marrow cells; also recorded: no abnormalities or changes in the cell morphology in bone marrow or spleens |  | far less sensitive to doxorubicin | significantly decreased leukemia burden | 1.5 to 2 | modest increase in cell death

Source: patent US11154551B2, “HDAC1,2 inhibitors and methods of using the same” (UNIVERSITY OF UTAH RESEARCH FOUNDATION, priority 2014, dated 2021)
